# Measured values taken from US20200054594A1 (priority 2017, published 2020).
# Key:
# incision pain in rats = test: Incision pain test in rats, mechanical pain threshold by Electronic Von Frey; assay type: in vivo, male Wistar rats
# rats = test: Toxic effects / adverse reactions observed during the rat incision pain study; assay type: in vivo, male Wistar rats; conditions: single agents, i.v.
# Protocol: The rats were randomly divided into the following groups according to the body weight: blank control group (n=8), model group (n=8) and drug-administered group (n=48). The drug-administered group was divided into the following groups: compound 19-0.1 mg/kg group (n=8), compound 19-0.3 mg/kg group (n=8), compound 19-0.03 mg/kg+compound 35-0.1 mg/kg group (n=8), compound 19-0.03 mg/kg+compound 35-0.3 mg/kg group (n=8), compound 19-0.1 mg/kg+compound 35-0.1 mg/kg group (n=8), and compound 19-0.1 mg/kg+compound 35-0.3 mg/kg group (n=8). The model group and drug-administered group were subjected to an incision surgery. During the surgery, the rats were anesthetized with isoflurane. An incision (1 cm long) passing through the skin and fascia was made with a No. 10 surgical blade in the middle of the left hind paw. The skin was sutured with a 3-0 sterile silk surgical suture. The injured site was disinfected with antibiotic ointment and iodophor. The animals were returned to their original place to recover overnight. After 24 hours, the drug was injected through the tail vein, and the blank control group and the model group were administrated with the corresponding solvents. […] The mechanical pain threshold of each group was measured by the Electronic Von Frey 30 minutes after the injection to evaluate the analgesic effect of the drug on the surgical incision pain and the intensity thereof.
Structure (SMILES),"increase of tenderness threshold compared with the model group (incision pain in rats; rat, in vivo, iv, 0.3 mg/kg)","tenderness threshold (incision pain in rats; rat, in vivo, iv, 0.3 mg/kg)","toxic effects (such as slow movement and stiffness of limbs in rats), compound 19 alone versus compound 35 alone (rats)","increase of tenderness threshold compared with the model group (incision pain in rats; compound 19 0.1 mg/kg i.v. alone, 30 minutes after administration)","tenderness threshold (incision pain in rats; compound 19 0.1 mg/kg i.v. alone, 30 minutes after administration, model group 11.08 g, blank control 37.68 g)"
"CNC(=O)NC1CCN(C(=O)[C@@H](CCCCN)NC(=O)[C@@H](CC(C)C)NC(=O)[C@@H](Cc2ccccc2)NC(=O)[C@H](N)Cc2ccccc2)CC1 [compound 35, (R)—N—((R)-6-Amino-1-(4-(3-methylureido)piperidin-1-yl)-1-oxohexan-2-yl)-2-((R)-2-((R)-2-amino-3-phenylpropanamido)-3-phenylpropanamido)-4-methylpentanamide]",102.3%,22.42 g,–,–,–
"CCO[C@H]1CC[C@H](NCC[C@@]2(c3ccccn3)CCOC3(CCCC3)C2)c2ccccc21 [compound 19, (1S,4S)-4-Ethoxy-N-(2-((R)-9-(pyridin-2-yl)-6-oxaspiro[4.5]decan-9-yl)ethyl)-1,2,3,4-tetrahydronaphthalen-1-amine]",–,–,more obvious toxic effects,233.8%,36.99 g
